Measurements taken from ChEMBL document CHEMBL1201862, “PubChem BioAssay data set” (2004).
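Cells were grown in 96-well plates and exposed to each compound for 48 hours at five concentrations; endpoints were interpolated linearly between bracketing concentrations, or set to the highest concentration if not reached. Here, GI50 denotes the concentration required for 50% inhibition of growth.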 Calls of active or inactive are those of the source. Cut-off read from the data, not from the text of the source: active = GI50 up to about 1.1 µM and inactive = higher.

Legend:
Experiment in all cases: NCI tumour cell line growth inhibition, 48 h
HT-29 = tested on: HT-29
OVCAR-3 = tested on: OVCAR-3
NCI-H23 = tested on: NCI-H23
RPMI-8226 = tested on: RPMI-8226
HCT-116 = tested on: HCT-116
SNB-19 = tested on: SNB-19
SK-MEL-28 = tested on: SK-MEL-28
MDA-MB-435 = tested on: MDA-MB-435
BT-549 = tested on: BT-549
K562 = tested on: K562
786-0 = tested on: 786-0
UACC-62 = tested on: UACC-62
Malme-3M = tested on: Malme-3M
A498 = tested on: A498
OVCAR-5 = tested on: OVCAR-5
SN12C = tested on: SN12C
MDA-MB-231 = tested on: MDA-MB-231
NCI/ADR-RES = tested on: NCI/ADR-RES
HOP-62 = tested on: HOP-62
SF-539 = tested on: SF-539

Measured: GI50

CC(C)(C)c1ccc2c(c1)C#Cc1cc(C(C)(C)C)ccc1OCCCO2
inactive: HT-29 > 100 µM | OVCAR-3 > 100 µM | NCI-H23 > 100 µM | RPMI-8226 > 100 µM | HCT-116 > 100 µM | SNB-19 > 100 µM | SK-MEL-28 > 100 µM | MDA-MB-435 > 100 µM | BT-549 > 100 µM | K562 > 100 µM | 786-0 > 100 µM | UACC-62 > 100 µM | Malme-3M > 100 µM | A498 > 100 µM | OVCAR-5 > 100 µM | SN12C > 100 µM | MDA-MB-231 > 100 µM | NCI/ADR-RES > 100 µM | HOP-62 > 100 µM

CC1=C([S+]([O-])c2ccc(C)cc2)CCC2(CCCCO2)O1 (stereo unspecified)
inactive: HT-29 > 100 µM | OVCAR-3 > 100 µM | NCI-H23 > 100 µM | RPMI-8226 66.5 µM | HCT-116 > 100 µM | SNB-19 > 100 µM | SK-MEL-28 > 100 µM | MDA-MB-435 > 100 µM | BT-549 > 100 µM | K562 46.8 µM | 786-0 > 100 µM | UACC-62 > 100 µM | Malme-3M > 100 µM | A498 > 100 µM | OVCAR-5 > 100 µM | SN12C > 100 µM | MDA-MB-231 > 100 µM | NCI/ADR-RES > 100 µM | HOP-62 > 100 µM

COc1ccc(/C=N/NC(=O)c2ccccc2Nc2ccccc2C(=O)N/N=C/c2ccc(OC)c(OC)c2)cc1OC
inactive: HT-29 > 100 µM | OVCAR-3 > 100 µM | NCI-H23 > 100 µM | RPMI-8226 > 100 µM | HCT-116 > 100 µM | SNB-19 > 100 µM | SK-MEL-28 > 100 µM | MDA-MB-435 > 100 µM | BT-549 > 100 µM | K562 > 100 µM | 786-0 > 100 µM | UACC-62 > 100 µM | Malme-3M 51.5 µM | A498 > 100 µM | OVCAR-5 > 100 µM | SN12C > 100 µM | MDA-MB-231 29.6 µM | NCI/ADR-RES > 100 µM | HOP-62 > 100 µM

O=c1[nH][nH]c(=O)n1/N=C/c1ccccc1
inactive: HT-29 > 100 µM | OVCAR-3 > 100 µM | NCI-H23 > 100 µM | RPMI-8226 > 100 µM | HCT-116 > 100 µM | SNB-19 > 100 µM | SK-MEL-28 > 100 µM | MDA-MB-435 > 100 µM | BT-549 > 100 µM | K562 > 100 µM | 786-0 > 100 µM | UACC-62 > 100 µM | SF-539 > 100 µM | A498 > 100 µM | OVCAR-5 > 100 µM | SN12C > 100 µM | MDA-MB-231 > 100 µM | NCI/ADR-RES > 100 µM | HOP-62 > 100 µM

CCOC(=O)CN1CCNCCN(CC(=O)OCC)CCNCC1
inactive: HT-29 55.3 µM | OVCAR-3 > 100 µM | RPMI-8226 > 100 µM | HCT-116 > 100 µM | SNB-19 > 100 µM | SK-MEL-28 > 100 µM | MDA-MB-435 > 100 µM | BT-549 > 100 µM | K562 80.5 µM | 786-0 > 100 µM | UACC-62 > 100 µM | SF-539 > 100 µM | A498 > 100 µM | OVCAR-5 > 100 µM | SN12C > 100 µM | MDA-MB-231 > 100 µM | NCI/ADR-RES > 100 µM | HOP-62 > 100 µM

CCOC(=O)/C=C(/C(=O)OCC)n1ccc(=O)n(Cc2cn(COCCOC(C)=O)nn2)c1=O
inactive: HT-29 18.1 µM | OVCAR-3 17.8 µM | NCI-H23 20.7 µM | RPMI-8226 19.5 µM | HCT-116 31.6 µM | SNB-19 70.5 µM | SK-MEL-28 16.3 µM | MDA-MB-435 17.9 µM | BT-549 16.4 µM | K562 19.1 µM | 786-0 21.7 µM | UACC-62 18.3 µM | SF-539 20.3 µM | A498 20.5 µM | OVCAR-5 20.1 µM | SN12C 34.8 µM | MDA-MB-231 28.8 µM | NCI/ADR-RES 20.3 µM | HOP-62 > 100 µM

O=C1/C(=C/c2ccccc2[N+](=O)[O-])N=C(c2ccccc2)N1c1nc2ccccc2s1
inactive: HT-29 35.4 µM | OVCAR-3 21.1 µM | NCI-H23 17.4 µM | RPMI-8226 9.82 µM | HCT-116 17.9 µM | SNB-19 42.6 µM | SK-MEL-28 31.3 µM | MDA-MB-435 19.4 µM | BT-549 20 µM | K562 15 µM | 786-0 21.7 µM | SF-539 30.1 µM | A498 28.1 µM | OVCAR-5 73.6 µM | SN12C 25 µM | MDA-MB-231 45.9 µM | NCI/ADR-RES 16.6 µM | HOP-62 27.1 µM
